From patent publication US20120189673A1, “POLYPEPTIDES AND USES THEREOF” (priority 2009, published 2012) come the findings set out here.

“Also recorded” adds a separate entry of the source.

For experiment [1], the system named is P. aeruginosa. Kind of experiment: FACS binding of TAMRA labeled peptide to P. aeruginosa. More on the design: species or system Pseudomonas aeruginosa. The settings on record: 3 μM TAMRA labeled peptide in human plasma. The method, then:
(§1) Flow cytometry analysis—Fifty μl of bacteria (1-2×10^6 cfu) were incubated with 450 μl of human plasma either alone or supplemented with GGL27 (at 3 μM). Samples were incubated for 30 min or 1 h at 37° C., divided into two equal parts, centrifuged, washed with PBS, and resuspended in 100 μl PBS with rabbit polyclonal antibodies against either LGE27 (25), a C-terminal epitope of human C3a, or rabbit polyclonal antibodies against C1q (both at 1:100). The mixtures were subsequently incubated for 1 h at room temperature. Bacteria were pelleted and washed twice with PBS, incubated in 100 μl PBS with goat anti rabbit IgG FITC-labeled antibodies (1:500, Sigma) for 30 min at room temperature and washed twice with PBS. In another experiment bacteria were incubated for 1 h in citrate plasma together with 3 μM TAMRA-labeled GGL27 peptide, then pelleted and washed twice with PBS. Flow cytometry analysis (Becton-Dickinson, Franklin Lakes, N.J.) was performed using a FACS-Calibur flow cytometry system equipped with a 15 mW argon laser turned a 488 nm. The bacterial population was selected by gating with appropriate settings of forward scatter (FSC) and sideward scatter (SSC).

The test system of experiment [2] is P. aeruginosa. Nature of the experiment: Complement (C1q, C5b-9/MAC, C3a) binding to P. aeruginosa in citrate plasma (immunoblot, flow cytometry). The class given is cell-based, Pseudomonas aeruginosa. As to conditions: citrate plasma with GGL27 at 3 μM. The method, then:
as §1, with “The bacterial population was selected by gating with appropriate settings of forward scatter (FSC) and sideward scatter (SSC).” left out
SDS-PAGE and immunoblotting—Human citrate plasma (450 μl) was incubated with 50 μl bacteria (1-2×10^9 cfu) either alone or supplemented with the peptide GGL27 at 3 μM. […] Precipitated material and supernatants were dissolved in SDS sample buffer and analyzed under reducing conditions by SDS-PAGE on 16.5% Tris-tricine gels (Clear PAGE™, C.B.S Scientific). […]

Another experiment deals with E. coli infected mice. Nature of the experiment: Animal infection model, E. coli. The settings on record: E. coli i.p.; GGL27 200 μg i.p. after 30 min; P<0.001. The class given is in vivo, mouse. The method, then: (§2) Animal infection model—Animals were housed under standard conditions of light and temperature and had free access to standard laboratory chow and water. P. aeruginosa 15159 bacteria were grown to logarithmic phase (OD620˜0.5), harvested, washed in PBS, diluted in the same buffer to 2×10^8 cfu/ml, and kept on ice until injection. Hundred microliter of the bacterial suspension was injected intraperitoneally (i.p.) into female Balb/c mice. Sixty minutes after the bacterial injection, 0.5 mg GGL27 or buffer alone was injected subcutaneously (s.c.) into the mice. In a corresponding E. coli infection model, bacteria were grown to early logarithmic phase (OD620˜0.4), harvested, washed in PBS, diluted in the same buffer to 1×10^8 cfu/ml, and kept on ice until injection. Hundred microliter of the bacterial suspension was injected i.p. into female Balb/c mice. Thirty minutes after the bacterial injection, 0.2 mg of GGL27 peptide or buffer alone was injected i.p. Data from two independent experiments were pooled.

The subject of experiment [3] is P. aeruginosa infected mice. Nature of the experiment: Animal infection model, P. aeruginosa. The settings on record: P. aeruginosa i.p.; GGL27 500 μg s.c. after 1 h; P<0.001. The class given is in vivo, mouse. The procedure:
as §2

Experiment [4] relates to E. coli LPS shock in C57BL/6 mice. Kind of experiment: LPS model in vivo (LPS-induced shock): survival, cytokines, lungs. More on the design: species or system mouse. The procedure:
Histochemistry—For immunostaining, wound biopsies were fixed in 10% formalin, rehydrated and embedded in paraffin. Sections of 5 μm thickness were placed on poly-lysine coated glass slides, deparaffinized in xylene and rehydrated in graded alcohols. The slides were then treated with Dako antigen retrieval solution (Dako) for 40 min at 97° C., and incubated for 24 h at room temperature in a 1:50 dilution of polyclonal antibodies against TFPI (Sigma-Aldrich, in TBS with 1% BSA, 5% goat serum, 0.05% Tween 20). After three 20 min washes in TBS with 0.05% Tween 20, the sections were incubated with alkaline phosphatase conjugated secondary goat anti-rabbit IgG (Dako) diluted 1:1000 in the same buffer as the primary antibody and incubated for another 24 hours, followed by three 20 min washes. Sections were developed with Vulcan Fast Red chromogen (Biocare Medical, Concord, Calif.) and the slides were counterstained with Harris Hematoxylin (EM Science, Gibbstown, N.J.). For histological evaluation of lungs derived from the in vivo LPS-models in mice, tissues were embedded as above, sectioned and stained with hematoxylin and eosin by routine procedures (Histocenter, Gothenburg, Sweden).
LPS model in vivo—Male C57BL/6 mice (8-10 weeks, 22+/−5 g), were injected intraperitoneally with 18 mg E. coli 0111:B4 LPS (Sigma) per kg of body weight. Thirty minutes after LPS injection, 0.5 mg GGL27, GGL27(S), DSE25 or buffer alone was injected intraperitoneally into the mice. Survival and status was followed during seven days. For blood collection and histochemistry, mice were sacrificed 20 h after LPS challenge, and lungs were removed and fixed. These experiments were approved by the Laboratory Animal Ethics Committee of Malmo/Lund.
Cytokine assay—The cytokines IL-6, IL-10, MCP-1, INF-γ, and TNF-α were measured in plasma from mice subjected to LPS (with or without peptide treatment) using the Cytometric bead array; mouse inflammation kit (Becton Dickinson AB) according to the manufacturer's instructions.

Setting [5] is: 20 h after LPS injection, peptide 500 μg.

“GGLIKTKRKRKKQRVKIAYEEIFVKNM [GGL27, C-terminal peptide of TFPI, plasmin-generated]”: the binding to bacteria result in the experiment on P. aeruginosa [1] is “avidly bound”. Also, the “generation and binding of C3a-containing fragments to the bacterial surface” value with P. aeruginosa [2] (FACS analysis) was “increased generation and binding of these C3a-containing fragments”. Further, the C1q/MAC alterations entry in the experiment on P. aeruginosa [2] is “no significant C1q/MAC alterations”. Further, the survival result with E. coli infected mice is listed as “prolongs survival; also recorded: prolongation of survival”. Moreover, the survival result in experiment [3] is recorded as “prolongs survival; also recorded: prolongation of survival”. In addition, in experiment [4] (20 h after LPS injection, GGL27 500 μg), the “inflammatory changes in lungs (histochemical analysis)” value was “marked attenuation of inflammatory changes; also recorded: marked reduction of inflammation and vascular leakage”. Besides, in experiment [4] (setting [5]), the IFN-γ in blood result is “significant reductions”, the IL-6 in blood result is given as “significant reductions”, the IL-10 in blood entry is given as “increased” and the MCP-1 in blood entry is “significant reductions”. Also, in experiment [4] (setting [5]), the TNF-α in blood result is on record as “significant reductions” and the “overall (proinflammatory) cytokine release” value is “attenuates proinflammatory cytokines”. Besides, the survival result in experiment [4] (E. coli LPS i.p., peptide 500 μg i.p. 30 minutes after, followed 7 days) was “significantly increased survival”. Also, the “anti-endotoxic effects in vivo” value in experiment [4] (mouse model of LPS-shock) is given as “anti-endotoxic effects”.
